| melting point [°C] | Compound |
| --- | --- |
| 121 to 123 | CCOC(=O)c1c(-c2ccccc2C)c2cc(C)c(Cl)cc2n(C)c1=O |
| 95 to 96 | COc1cc(C(=O)c2ccc(C(F)(F)F)cc2)cc(N)c1OC |
| 157 to 160 | CN1CCN(c2cccc3ccc(Nc4nc(Cc5ccccc5)cs4)cc23)CC1 |
| 170 to 172 | COc1ccc(Cl)cc1NC(=O)[C@H]1[C@H](c2ccc(Br)cc2)C1(C)C (relative stereo) |
| 280 | COc1ccc2c(c1)C(c1ccc(N)cc1)=Nn1c(nc(C)c1C)C2 |
| 99 to 101 | CCOC(=O)c1c(CN2CCC(C(=O)OCC)CC2)nc2sc3c(c2c1-c1ccc(OC)c(OC)c1)CCN(C(=O)c1ccc(Cl)cc1)C3 |
| 119 to 120 | CCOc1cc(CCCC2OC(=O)NC2=O)ccc1OCc1coc(-c2ccccc2)n1 (stereo unspecified) |
| 202 to 204 | CCOC(=O)c1cn(CCBr)c2nc(N3CCN(C(C)=O)CC3)ncc2c1=O |
| 169 to 170 | CC1C(=NCCCN(C)C)c2c([nH]c3ccc(Cl)cc3c2=O)CC1c1ccc(C(F)(F)F)cc1 (stereo unspecified) |
| 86.5 to 87.5 | COc1ccc(-c2ccc(C=O)cc2)cc1OC1CCCC1 |
| 170 to 175 | CCc1nc2cc(C(N)=O)c(Cl)cc2n1-c1ccc(CCOC(=O)NS(=O)(=O)c2ccc(C)cc2)cc1 |
| 110 | CS(=O)(=O)N1CCN([C@@H](CNCS(=O)(=O)c2ccc(OCc3ccccc3)cc2)C(=O)NO)CC1 |
| 170 to 171 | O=C1c2cccc(Cl)c2C(=O)N1CCN1CCC(c2noc3cc(F)ccc23)CC1 |
| 152 | COC(=O)N1CC[C@H](Nc2nc3cncnc3n2Cc2ccc(F)cc2)[C@H](C)C1 (relative stereo) |
| 124 to 129 | c1ccc(CN2CCc3c(sc4nc5ccccc5n34)C2)cc1 |
| 178 to 180 | COc1cc(-c2csc(C(N)=O)n2)cc(Cl)c1OC |
| > 225 | Cc1sc2c(Br)c3ccccc3c(-c3ccc(OS(=O)(=O)c4ccc(C(=O)O)c(O)c4)c(C(C)C)c3)c2c1C |
| 231 to 233 | O=C(O)c1ccc(COCc2csc3nc(C(=O)NCc4cccc(Br)c4)[nH]c(=O)c23)cc1 |
| 185 to 186 | O=C1NCCc2ccc(OCCCCN3CCN(c4cccc5c4CCCC5)CC3)nc2N1 |

| melting point [°C] | Compound |
| --- | --- |
| 173 to 175 | CCOC(=O)CN1C(=O)[C@@H](N)[C@H](c2ccccc2)Sc2cc(Cl)ccc21 (relative stereo) |
| 130 to 131 | COc1ccc(-n2nc3c(cc2=O)CCCc2sc(CO)cc2-3)cc1 |
| 84 to 85 | CCCc1nn(-c2ccc(C(F)(F)F)cn2)cc1CCCOc1ccc(C(C)(C)C(=O)O)cc1 |
| 190 to 195 | COc1cc(C=Cc2nc3c(c(=O)n(C)c(=O)n3C)n2C)cc(OC)c1OCc1ccccc1 |
| 107 to 108 | C=Cc1c(OC)nc(-c2ccc(Cl)c(OC)c2F)nc1C(=O)OC |
| 179 to 183 | Cc1c(F)cc(C(=O)NCC2CC2)cc1-c1ccc(C(=O)NCC(C)(C)C)cc1C(=O)Nc1nccs1 |
| 128 to 130 | COc1cccc(OC)c1CN1C(=O)C2CCCN2c2ccccc21 (stereo unspecified) |
| 52 to 54 | CCCc1nn(C)c2c(=O)n(CCCOc3ccc(SC(C)(C)C(=O)OCC)cc3)c(CC)nc12 |
| 83 to 84 | CC(C)(C)OC(=O)N1CCC(C(=O)NCCC(=O)OCc2ccccc2)C1 (stereo unspecified) |
| 186 to 188 | CCCc1nc2c(N)nc(C)c(C)c2n1CCCS(=O)(=O)c1ccc(Cl)cc1 |
| 185 to 190 | COC(=O)c1ccccc1S(=O)(=O)NC(=O)Nc1nc(OC)cc(OC)n1 |
| 213 to 214 | CCCCCCCCCCCCOC(=O)CCC(=O)c1ccc(NCc2ccc3ccc4nc(C)[nH]c(=O)c4c3c2)cc1 |
| 256 to 257 | COc1ccc(-c2cc3ccc(Cl)cc3[nH]c2=O)cc1 |
| 175 | COC(=O)CCC#Cc1cc(Cl)ccc1NS(=O)(=O)c1ccc2nc(N)sc2c1 |
| 143 to 144 | CCOC(=O)c1nc(N)sc1C(=O)c1ccccn1 |
| 190 to 197 | Cn1c(=O)c(-c2ccccc2Cl)cc2cnc(NC3C4CN(C(=O)Nc5ccc(CC(=O)O)cc5)CC43)nc21 (stereo unspecified) |
| > 240 | Cn1cc(C2c3ccc(Cl)cc3C=Cc3sc(N)nc32)c(=O)[nH]c1=O (stereo unspecified) |
| 184 to 186 | O=C(O)c1cccc(-c2ccc(CNC(=O)c3cccnc3Oc3ccc(F)cc3)cc2)c1 |
| 90 | CCCc1c(OCCOc2cccc(C(=O)NCCCCc3cccnc3)c2)ccc(C(C)=O)c1O |

The next lines start with the compound.

| Compound | melting point [°C] |
| --- | --- |
| OCCN1C2C=C(c3ccc4ccccc4c3)CC1CC2 (stereo unspecified) | 113 to 114 |
| O=C(CCc1cnn2c(=O)[nH]cnc12)NCCCN1CCCC1=O | 180 to 181 |
| O=C1Cc2ccc(C3CCCCC3)cc2O1 | 80 to 81 |
| CNCCCNC(=O)c1[nH]c(-c2ccccc2)c2cc(Cl)ccc12 | 162 to 164 |
| O=S1(=O)CCCSC(S)=N1 | 134 |
| Nc1ccc2c(c1)C=C(C(=O)O)C(C(F)(F)F)O2 (stereo unspecified) | 126 to 133 |
| Brc1ccc(C#CC#Cc2ccc(Br)cc2)cc1 | 264 to 265 |
| NC(=O)COCc1nnc(S)s1 | 216 to 217 |
| C[C@H]1C(=O)OCN1C(=O)OC(C)(C)C | 64 to 67 |
| CCCCN(c1nc(NCCCCCCN)nc(N(CCCC)C2CC(C)(C)N(C)C(C)(C)C2)n1)C1CC(C)(C)N(C)C(C)(C)C1 | 125 |
| CC(C)c1nn2ccccc2c1Br | 51 to 52 |
| Cc1cc2ncccc2c(=O)[nH]1 | 244 to 245 |
| Nc1ccccc1S(=O)c1nc2cc(Cl)ccc2[nH]1 (stereo unspecified) | 176 to 178 |
| Nc1ccc2c(c1)CS(=O)(=O)N2CCF | 119 to 121 |
| N#CC1c2ccc(Br)cc2CCC1c1ccc(F)cc1 (stereo unspecified) | 146 |
| FC(F)(F)c1cccc(C(NC2=NCCO2)C(F)(F)F)c1 (stereo unspecified) | 129 to 132 |
| COC(=O)c1ccc([N+](=O)[O-])cc1S(=O)(=O)N(C)C | 93 to 96 |
| CN(C)c1ccc(C(=N)NC=Cc2ccc([N+](=O)[O-])cc2)cc1 | 191 to 193 |
| FC(F)(F)Oc1ccc(Nc2cc(-c3ccccc3)ncn2)cc1 | 245 to 247 |
| Fc1cc(F)c(N=C2NCCN2)c(F)c1 | 148 to 150 |
| COc1cccc2c1C(=O)N(CSc1ccccc1)S2(=O)=O | 152 to 154 |

| Compound | melting point [°C] |
| --- | --- |
| CN(C)CC(=O)NCc1nc(C(=O)N(C)C)nn1-c1ccc(Cl)cc1C(=O)c1ccccc1Cl | 122 to 124 |
| O=C1CC2(CCCC2)CC(=O)N1c1cccnc1 | 153 to 154 |
| O=C1NCCN1Cc1ccc2ccccc2c1 | 149 to 152 |
| O=C(O)C(=NOc1ccccc1)c1cccs1 | 86 |
| COc1ccc(C#CCO)c2c1c(CCN(C)C)cn2C | 101 to 104 |
| O=C(O)Cc1ccc(NC(=O)C(COc2cccc(Cl)c2)NS(=O)(=O)c2ccc(I)cc2)cc1 (racemic) | 225 to 226 |
| Cc1c(C)c2c(c(C)c1NCc1ccc3c(c1)OCO3)C(c1ccc(C(C)C)cc1)C(C)(C)O2 (stereo unspecified) | 100 to 102 |
| CCCCCCC(N)C(C)O (stereo unspecified) | 81 to 86 |
| CCOC(=O)C=Cc1cc2c(cn1)[nH]c1ccccc12 | 132 to 134 |
| CCN(C)c1nc(-c2ccncc2)nc2sc(C#N)c(C)c12 | 162 to 164 |
| O=C(O)c1ccc(-c2ccn(-c3ccc(C(F)(F)F)cc3)c2)cc1 | 315 to 317 |
| OCc1ccccc1CBr | 61 to 63 |
| CC(Cl)N1C(=O)CCC1=O (stereo unspecified) | 83.5 to 84.5 |
| N#Cc1cncc(-c2ccc3c(c2)C2(CCCCC2)C(=O)N3)c1 | 232 to 234 |
| CCCOc1n[nH]c(=O)n1C1CCCCC1 | 132 to 136 |
| Cc1ccc2c(c1)c(CCC(=O)O)c1n2C(=O)CCC1 | 152 to 153 |
| CCCn1nc2c(N)nc3ccccc3c2c1CCCc1cc(-c2cccnc2)no1 | 192 to 193 |
| COC(=O)c1ccc(S(C)(=O)=O)c(C2=NOCC2)c1C | 104 to 106 |
| CS(=O)(=O)Nc1ccc(OC2CCCC2)cc1 | 140 to 142 |
| Nc1ccc(F)c(-c2cccnc2)c1F | 112 to 113 |
| CC1CCc2nc(-c3ccccc3)[nH]c(=O)c2C1 (stereo unspecified) | 237 |

| Compound | melting point [°C] |
| --- | --- |
| CN(C)CCc1[nH]c2ccccc2c1CC#N | 122 to 127 |
| CS(=O)(=O)N(Cc1cccnc1)c1ccc(O)cc1 | 208 to 210 |
| CC(C)(C)c1ccc(Sc2ccc(Br)cc2)cc1 | 39 to 46 |
| COc1ccc(-c2cc(C=O)cc3ccoc23)cc1 | 79 to 80 |
| CCCCCCc1nc2c(N)nc3ccccc3c2n1CCCCNC(=O)Nc1ccccc1 | 170 to 172 |
| CCCCc1ccnc(C2(C(=S)NC)CCCS2)c1 (stereo unspecified) | 102 |
| CCCOc1ccccc1-c1nc2nc(N3CCOCC3)ncc2c(=O)[nH]1 | 176 to 177 |
| O=S(=O)(Nc1ccc(OCc2ccc3ccccc3n2)cc1)c1c(F)c(F)c(F)c(F)c1F | 170 to 178 |
| O=C(O)c1cc(O)c(Cl)c(Cl)c1 | 211 |
| COC(=O)c1c(S(C)(=O)=O)ccc(C(=O)C2C(=O)CCCC2=O)c1Cl | 160 to 162 |
| Nc1ncc2[nH]c3ccccc3c2n1 | 258 to 260 |
| CC(C)Nc1nc2cc(Cl)c(Cl)cc2n1[C@H]1O[C@@H](C)[C@H](O)[C@@H]1O | 103 to 105 |
| CC(=O)Nc1c(-c2cc(Cl)ccc2O)c2cc(C(F)(F)F)ccc2[nH]c1=O | 222 to 224 |
| CCCCNc1c(C(=O)OCC)c(C)nc2[nH]nnc12 | 188 to 189 |
| N#Cc1c(O)nc2onc(-c3ccccc3)c2c1N | 251 |
| COc1ccc(/C=C/c2ccncc2)c2c1OC(C)(C)C2 | 110 to 113 |
| CC(C)C(CCl)NC(=O)c1nsc2ccc(-n3c(=O)cc(C(F)(F)F)n(C)c3=O)cc12 (stereo unspecified) | 196 to 197 |
| C=CCN(C)C/C=C/COc1cc2c(cc1F)c(-c1ccc(Br)cc1)nn2C | 135 to 137 |
| Cc1ccc(S(=O)(=O)Nc2ccc3[nH]c(=O)c4ccccc4c3c2)cc1 | 199 to 203 |
| COCOCc1nc2nc(O)cnc2c(=O)[nH]1 | 224 to 226 |
| O=C1c2cccc(NC(=S)Nc3ccccn3)c2C2CC3(CCN12)SCCS3 (stereo unspecified) | 142 |

Source: a melting point compilation (Tetko et al.; mined from patent text by program, amines drawn as free bases though some values may be those of a salt)
